Drawing on patent US8846661B2, “Diazahomoadamantane derivatives and methods of use thereof” (AbbVie Inc., priority 2009, dated 2014), this text covers Ki for 16 compounds.

The assay addresses α7 NNR (UniProt Q05941). The following applies: [3H]-DPPB binding.
Experimental: [^3H]-DPPB, [^3H]-(S,S)-2,2-dimethyl-5-(6-phenyl-pyridazin-3-yl)-5-aza-2-azonia-bicyclo[2.2.1]heptane iodide, binding to the α7 NNR subtype was determined using membrane enriched fractions from rat brain minus cerebellum or human cortex (ABS Inc., Wilmington, Del.) as described in Anderson, D. J.; et al., J. Pharmacol. Exp. Ther. 2008, 324: 179-187 which is incorporated herein by reference. Briefly, pellets were thawed at 4° C., washed and resuspended with a Polytron at a setting of 7 in 30 volumes of BSS-Tris buffer (120 mM NaCl, 5 mM KCl, 2 mM CaCl2, 2 mM MgCl2, and 50 mM Tris-C1, pH 7.4, 4° C.). Seven log-dilution concentrations of test compounds containing 100-200 μg of protein, and 0.5 nM [^3H]-DPPB (62.8 Ci/mmol; R46V, Abbott Labs) were incubated in a final volume of 500 μL for 75 minutes at 4° C. in duplicate. Non-specific binding was determined in the presence of 10 μM methyllycaconitine. Bound radioactivity was collected on Millipore MultiScreen® harvest plates FB presoaked with 0.3% polyethyleneimine using a Packard cell harvester, washed with 2.5 mL ice-cold buffer, and radioactivity was determined using a Packard TopCount Microplate beta counter. IC50 values were determined by nonlinear regression in Microsoft® Excel or Assay Explorer. K, values were calculated from the IC50s using the Cheng-Prusoff equation, where Ki=IC50/(1+[Ligand]/KD) and are shown in Table 1.
A word on the Ki: it is a dissociation constant, usually derived from enzyme kinetics or from competition with a known ligand. For `c1cc2cc(-c3ccc(N4CC5CC6CC4CN(C6)C5)nn3)ccc2s1` (stereo not shown) [Example 8, 4-[6-(1-benzothien-5-yl)pyridazin-3-yl]-1,4-diazatricyclo[4.3.1.1^3,8]undecane], the Ki was 3.5 nM. In the case of `O=C(c1n[nH]c2ccccc12)N1CC2CC3CC1CN(C3)C2` (stereo not shown) [Example 57, 4-(1H-indazol-3-ylcarbonyl)-1,4-diazatricyclo[4.3.1.1^3,8]undecane] it was 23.6 nM; in that of `Fc1ccc(-c2cnc(N3CC4CC5CC3CN(C5)C4)s2)cc1` (stereo not shown) [Example 110, 4-[5-(4-fluorophenyl)-1,3-thiazol-2-yl]-1,4-diazatricyclo[4.3.1.1^3,8]undecane], 53.6 nM. In the case of `Cc1ccc(-c2cnc(N3CC4CC5CC3CN(C5)C4)s2)cc1` (stereo not shown) [Example 106, 4-[5-(4-methylphenyl)-1,3-thiazol-2-yl]-1,4-diazatricyclo[4.3.1.1^3,8]undecane] it was 26.4 nM; in that of `c1ccc2sc(N3CC4CC5CC3CN(C5)C4)nc2c1` (stereo not shown) [Example 113, 4-(1,3-benzothiazol-2-yl)-1,4-diazatricyclo[4.3.1.1^3,8]undecane], more than 10000 nM; in that of `Clc1ccc2nc(N3CC4CC5CC3CN(C5)C4)sc2c1` (stereo not shown) [Example 111, 4-(6-chloro-1,3-benzothiazol-2-yl)-1,4-diazatricyclo[4.3.1.1^3,8]undecane], 114 nM.

Turning to `c1cc(-c2cncc(N3CC4CC5CC3CN(C5)C4)c2)c2cc[nH]c2c1` (stereo not shown) [Example 104, 4-[5-(1H-indol-4-yl)pyridin-3-yl]-1,4-diazatricyclo[4.3.1.1^3,8]undecane], the affinity corresponds to a Ki of 26.3 nM. On to `O=C(c1ccc2[nH]ccc2c1)N1CC2CC3CC1CN(C3)C2` (stereo not shown) [Example 37, 4-(1H-indol-5-ylcarbonyl)-1,4-diazatricyclo[4.3.1.1^3,8]undecane], for which the Ki was more than 10000 nM. Compound `O=C(c1ccc2sccc2n1)N1CC2CC3CC1CN(C3)C2` (stereo not shown) [Example 4, 4-(thieno[3,2-b]pyridin-5-ylcarbonyl)-1,4-diazatricyclo[4.3.1.1^3,8]undecane] had a Ki of 456 nM.

The compound `Clc1ccc2nc(N3CC4CC5CC3CN(C5)C4)oc2c1` (stereo not shown) [Example 112, 4-(6-chloro-1,3-benzoxazol-2-yl)-1,4-diazatricyclo[4.3.1.1^3,8]undecane] gave an inhibition constant Ki of 35.5 nM.

Take `O=C(c1cc2ccsc2cn1)N1CC2CC3CC1CN(C3)C2` (stereo not shown) [Example 3, 4-(thieno[2,3-c]pyridin-5-ylcarbonyl)-1,4-diazatricyclo[4.3.1.1^3,8]undecane]: the affinity corresponds to a Ki of 11.6 nM. Under `O=C1NC2CC3CC1CN(C3)C2` (stereo not shown) [Example 1, 1,4-diazatricyclo[4.3.1.1^3,8]undecan-5-one] stands 701 nM. In the case of “4-[5-(3,4-difluorophenyl)pyridin-3-yl]-1,4-diazatricyclo[4.3.1.1^3s]undecane [Example 99]” it was more than 10000 nM.

For `Fc1cccc(-c2cnc(N3CC4CC5CC3CN(C5)C4)s2)c1` (stereo not shown) [Example 108, 4-[5-(3-fluorophenyl)-1,3-thiazol-2-yl]-1,4-diazatricyclo[4.3.1.1^3,8]undecane], the affinity, expressed as Ki, was 37.7 nM.

In turn, `COc1ccc(-c2cnc(N3CC4CC5CC3CN(C5)C4)s2)cc1` (stereo not shown) [Example 105, 4-[5-(4-methoxyphenyl)-1,3-thiazol-2-yl]-1,4-diazatricyclo[4.3.1.1^3,8]undecane] yielded a Ki of 133 nM.

Turning to `O=S1(=O)c2ccccc2-c2ccc(N3CC4CC5CC3CN(C5)C4)cc21` (stereo not shown) [Example 5, 4-(5,5-dioxidodibenzo[b,d]thien-3-yl)-1,4-diazatricyclo[4.3.1.1^3,8]undecane], the affinity corresponds to a Ki of 2.3 nM.
